Here are results for 19 compounds from patent publication US20260364089A1, “PYRIDOPYRIMIDINE KRAS INHIBITORS” (Treeline Biosciences, Inc., priority 2022, published 2026).

Each structure is given as a SMILES string.

The target in the experiment is T1, KRas G12V (Homo sapiens, UniProt P01116, G12V).
T1 construct: Biotinylated KRas G12V (aa 1-169) loaded with GDP nucleotide; biotin (biotinylated)
T1 sequence (P01116 1-169 G12V): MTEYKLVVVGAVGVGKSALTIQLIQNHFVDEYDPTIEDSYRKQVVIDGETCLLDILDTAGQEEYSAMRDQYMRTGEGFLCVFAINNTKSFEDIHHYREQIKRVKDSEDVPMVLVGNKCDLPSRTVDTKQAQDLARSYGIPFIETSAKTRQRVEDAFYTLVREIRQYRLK
The experiment is described as follows: SOS1-Catalyzed Nucleotide Exchange Assay, KRas G12V (Method 2). In kind it is biochemical. The following applies: Method 2, B; 5 nM KRas G12V (aa 1-169, GDP-loaded), 50 nM SOS1; read-out: KRas G12V IC50 (nM) (Method 2, B). The method, then: KRas G12V [Method 2]: Compounds were pre-dispensed via Echo liquid handling (acoustic, touch-free) to generate assay ready plates (ARP). More precisely, a 10-point concentration response curve for each compound was prepared with appropriate top concentration (1 μM, 10 μM, 100 μM). Biotinylated KRas G12V (aa 1-169) loaded with GDP nucleotide and Streptavidin-Europium (SA-EU, Columbia Biosciences) were preincubated in assay buffer (20 mM HEPES pH 7.4, 150 mM NaCl, 5 mM MgCl2, 1 mM DTT, 0.01% Brij-35, 0.3 mg/mL BSA) on ice for 30 min. Separately SOS1 (aa 546-1049) and EDA-GTP-DY647P1 (Jena Bioscience) were preincubated in assay buffer on ice for 30 min. After 30 minutes of incubation for the assay components, 5 μL buffer and 5 μL of KRas G12V-SA-Eu were added to each well of the ARP. After a further 30 min, 5 μL of SOS1-EDA-GTP-D467P1 was added to start the nucleotide exchange reaction. Final concentration in the assay were 5 nM KRas G12V, 50 nM SOS1 (aa 564-1049). The reaction was allowed to proceed for 60-90 minutes after which the plate was read on a plate reader. After normalization of the raw data, the data was fit to a four-parameter logistic curve.
With `Nc1cc(Cl)c2c(c1)-c1ncc3c(nc(OC[C@@]45CCCN4C[C@H](F)C5)nc3c1F)N1CCC(CCNC(=O)CCCC2)C1` (stereo partly drawn) [Compound 164a, 3^5-amino-3^3-chloro-2^8-fluoro-2^2-(((2R,7aS)-2-fluorotetrahydro-1H-pyrrolizin-7a(5H)-yl)methoxy)-9-aza-2(4,7)-pyrido[4,3-d]pyrimidina-1(1,3)-pyrrolidina-3(1,2)-benzenacycloundecaphan-8-one], the IC50 – broadly, the concentration that gives 50% inhibition – lay within 1000 to 10000 nM.
With `Nc1cc(Cl)c2c(c1)-c1ccc3c(nc(OC[C@@]45CCCN4C[C@H](F)C5)nc3c1F)N1CCCC(CCNC(=O)CCCC2)C1` (stereo partly drawn) [Compound 165a, 3^5-amino-3^3-chloro-2^8-fluoro-2^2-(((2R,7aS)-2-fluorotetrahydro-1H-pyrrolizin-7a(5H)-yl)methoxy)-9-aza-2(4,7)-quinazolina-1(1,3)-piperidina-3(1,2)-benzenacycloundecaphan-8-one] the figure was not above 100 nM.
The figure for `O=C1CCCCc2ccc3[nH]ncc3c2-c2ccc3c(nc(OC[C@@]45CCCN4C[C@H](F)C5)nc3c2F)N2CCCC(CCN1)C2` (stereo partly drawn) [Compound 166a, 2^8-fluoro-2^2-(((2R,7aS)-2-fluorotetrahydro-1H-pyrrolizin-7a(5H)-yl)methoxy)-1^1H-6-aza-2(7,4)-quinazolina-1(4,5)-indazola-3(1,3)-piperidinacycloundecaphan-7-one] is not above 100 nM.
The figure for `O=C1CCCCc2ccc3[nH]ncc3c2-c2ncc3c(nc(OC[C@@]45CCCN4C[C@H](F)C5)nc3c2F)N2CCCC(CCN1)C2` (stereo partly drawn) [Compound 167a, 2^8-fluoro-2^2-(((2R,7aS)-2-fluorotetrahydro-1H-pyrrolizin-7a(5H)-yl)methoxy)-1^1H-6-aza-2(7,4)-pyrido[4,3-d]pyrimidina-1(4,5)-indazola-3(1,3)-piperidinacycloundecaphan-7-one] is not above 100 nM; for `O=C1CCCc2c(F)ccc3cccc(c23)-c2ncc3c(nc(OC[C@@]45CCCN4C[C@H](F)C5)nc3c2F)N2CCCC(CCN1)C2` (stereo partly drawn) [Compound 170a, 2^8,3^7-difluoro-2^2-(((2R,7aS)-2-fluorotetrahydro-1H-pyrrolizin-7a(5H)-yl)methoxy)-8-aza-2(4,7)-pyrido[4,3-d]pyrimidina-1(1,3)-piperidina-3(1,8)-naphthalenacyclodecaphan-7-one] it is not above 100 nM.
Regarding `CN1CCC[C@H]1COc1nc2c3cnc(c(F)c3n1)-c1cc(N)cc(Cl)c1CCCCC(=O)NCCC1CCCN2C1` (stereo partly drawn) [Compound 171a, 3^5-amino-3^3-chloro-2^8-fluoro-2^2-(((S)-1-methylpyrrolidin-2-yl)methoxy)-9-aza-2(4,7)-pyrido[4,3-d]pyrimidina-1(1,3)-piperidina-3(1,2)-benzenacycloundecaphan-8-one], the IC50 is 100 to 1000 nM.
The figure for `Nc1cc2c(c(Cl)c1F)CCCCC(=O)NCCC1CCCN(C1)c1nc(OC[C@@]34CCCN3C[C@H](F)C4)nc3c(F)c-2ncc13` (stereo partly drawn) [Compound 172a, 3^5-amino-3^3-chloro-2^8,3^4-difluoro-2^2-(((2R,7aS)-2-fluorotetrahydro-1H-pyrrolizin-7a(5H)-yl)methoxy)-9-aza-2(4,7)-pyrido[4,3-d]pyrimidina-1(1,3)-piperidina-3(1,2)-benzenacycloundecaphan-8-one] is not above 100 nM; for `O=C1CCCc2c(F)ccc3cc(O)cc(c23)-c2ncc3c(nc(OC[C@@]45CCCN4C[C@H](F)C5)nc3c2F)N2CCOCC(CN1)C2` (stereo partly drawn) [Compound 173a, 2^8,3^7-difluoro-2^2-(((2R,7aS)-2-fluorotetrahydro-1H-pyrrolizin-7a(5H)-yl)methoxy)-3^3-hydroxy-8-aza-1(4,6)-oxazepana-2(4,7)-pyrido[4,3-d]pyrimidina-3(1,8)-naphthalenacyclononaphan-7-one] it is not above 100 nM.
As for `Nc1cc2c(c(Cl)c1F)CCCCC(=O)NCCC1CCCN(C1)c1nc(OC[C@@]34CCCN3C[C@H](F)C4)nc3c(F)c-2ccc13` (stereo partly drawn) [Compound 174a, 3^5-amino-3^3-chloro-2^8,3^4-difluoro-2^2-(((2R,7aS)-2-fluorotetrahydro-1H-pyrrolizin-7a(5H)-yl)methoxy)-9-aza-2(4,7)-quinazolina-1(1,3)-piperidina-3(1,2)-benzenacycloundecaphan-8-one], the IC50 fell in the range of 100 to 1000 nM.
As for `O=C1CCCc2c(F)ccc3cc(O)cc(c23)-c2ccc3c(nc(OC[C@@]45CCCN4C[C@H](F)C5)nc3c2F)N2CCCC(CCN1)C2` (stereo partly drawn) [Compound 175a, 2^8,3^7-difluoro-2^2-(((2R,7aS)-2-fluorotetrahydro-1H-pyrrolizin-7a(5H)-yl)methoxy)-3^3-hydroxy-8-aza-2(4,7)-quinazolina-1(1,3)-piperidina-3(1,8)-naphthalenacyclodecaphan-7-one], the IC50 is not above 100 nM.
With `CN1CCC[C@H]1CCOc1nc2c3cnc(c(F)c3n1)-c1cc(N)cc(Cl)c1CCCCC(=O)NCCC1CCCN2C1` (stereo partly drawn) [Compound 176a, 3^5-amino-3^3-chloro-2^8-fluoro-2^2-(2-((S)-1-methylpyrrolidin-2-yl)ethoxy)-9-aza-2(4,7)-pyrido[4,3-d]pyrimidina-1(1,3)-piperidina-3(1,2)-benzenacycloundecaphan-8-one] the figure was 100 to 1000 nM; with `Nc1cc(Cl)c2c(c1)-c1ncc3c(nc(OCC4(CN5CCOCC5)CC4)nc3c1F)N1CCCC(CCNC(=O)CCCC2)C1` (stereo not shown) [Compound 177, 3^5-amino-3^3-chloro-2^8-fluoro-2^2-((1-(morpholinomethyl)cyclopropyl)methoxy)-9-aza-2(4,7)-pyrido[4,3-d]pyrimidina-1(1,3)-piperidina-3(1,2)-benzenacycloundecaphan-8-one], 100 to 1000 nM; with `CN(C)CC1(COc2nc3c4cnc(c(F)c4n2)-c2cc(N)cc(Cl)c2CCCCC(=O)NCCC2CCCN3C2)CC1` (stereo not shown) [Compound 178, 3^5-amino-3^3-chloro-2^2-((1-((dimethylamino)methyl)cyclopropyl)methoxy)-2^8-fluoro-9-aza-2(4,7)-pyrido[4,3-d]pyrimidina-1(1,3)-piperidina-3(1,2)-benzenacycloundecaphan-8-one], 100 to 1000 nM.
Regarding `CN1C[C@H](F)C[C@H]1COc1nc2c3cnc(c(F)c3n1)-c1cc(N)cc(Cl)c1CCCCC(=O)NCCC1CCCN2C1` (stereo partly drawn) [Compound 179a, 3^5-amino-3^3-chloro-2^8-fluoro-2^2-(((2S,4R)-4-fluoro-1-methylpyrrolidin-2-yl)methoxy)-9-aza-2(4,7)-pyrido[4,3-d]pyrimidina-1(1,3)-piperidina-3(1,2)-benzenacycloundecaphan-8-one], the half-inhibitory concentration (IC50) was in the range of 100 to 1000 nM.
With `Nc1cc2c(c(Cl)c1F)CCCCC(=O)NCCC1(O)CCCN(C1)c1nc(OC[C@@]34CCCN3C[C@H](F)C4)nc3c(F)c-2ccc13` (stereo partly drawn) [Compound 180a, 3^5-amino-3^3-chloro-2^8,3^4-difluoro-2^2-(((2R,7aS)-2-fluorotetrahydro-1H-pyrrolizin-7a(5H)-yl)methoxy)-13-hydroxy-9-aza-2(4,7)-quinazolina-1(1,3)-piperidina-3(1,2)-benzenacycloundecaphan-8-one] the figure was 100 to 1000 nM.
The figure for `Nc1cc2c(c(C(F)(F)F)c1)CCCCC(=O)NCCC1CCCN(C1)c1nc(OC[C@@]34CCCN3C[C@H](F)C4)nc3c(F)c-2ncc13` (stereo partly drawn) [Compound 181a, 3^5-amino-2^8-fluoro-2^2-(((2R,7aS)-2-fluorotetrahydro-1H-pyrrolizin-7a(5H)-yl)methoxy)-3^3-(trifluoromethyl)-9-aza-2(4,7)-pyrido[4,3-d]pyrimidina-1(1,3)-piperidina-3(1,2)-benzenacycloundecaphan-8-one] is 1000 to 10000 nM.
With `Nc1cc2c(c(Cl)c1F)CCCCC(=O)NCC1COCCN(C1)c1nc(OC[C@@]34CCCN3C[C@H](F)C4)nc3c(F)c-2ncc13` (stereo partly drawn) [Compound 182a, 3^5-amino-3^3-chloro-2^8,3^4-difluoro-2^2-(((2R,7aS)-2-fluorotetrahydro-1H-pyrrolizin-7a(5H)-yl)methoxy)-9-aza-1(4,6)-oxazepana-2(4,7)-pyrido[4,3-d]pyrimidina-3(1,2)-benzenacyclodecaphan-8-one] the figure was 100 to 1000 nM.
`Nc1cc2c(c(Cl)c1F)CCCCC(=O)NCCC1(O)CCCN(C1)c1nc(OC[C@@]34CCCN3C[C@H](F)C4)nc3c(F)c-2c(F)cc13` (stereo partly drawn) [Compound 183a, 3^5-amino-3^3-chloro-2^6,2^8,3^4-trifluoro-2^2-(((2R,7aS)-2-fluorotetrahydro-1H-pyrrolizin-7a(5H)-yl)methoxy)-1^3-hydroxy-9-aza-2(4,7)-quinazolina-1(1,3)-piperidina-3(1,2)-benzenacycloundecaphan-8-one]: the IC50 fell in the range of 100 to 1000 nM.
Regarding `Nc1cc2c(c(Cl)c1F)CCCCC(=O)NCC1COCCN(C1)c1nc(OC[C@@]34CCCN3C[C@H](F)C4)nc3c(F)c-2c(F)cc13` (stereo partly drawn) [Compound 184a, 3^5-amino-3^3-chloro-2^6,2^8,3^4-trifluoro-2^2-(((2R,7aS)-2-fluorotetrahydro-1H-pyrrolizin-7a(5H)-yl)methoxy)-9-aza-1(4,6)-oxazepana-2(4,7)-quinazolina-3(1,2)-benzenacyclodecaphan-8-one], the IC50 is 100 to 1000 nM.
